Laboratory results published in US20100285959A1, “HERBICIDAL MIXTURES” (priority 2006, published 2010).

Legend:
wild buckwheat (POLCO) [1] = assay: Test 22 growth chamber, postemergence; type: in vivo, Polygonum convolvulus; settings: 25 DAA
Protocol: A test was conducted to evaluate the effects on winter barley (HORVW, Hordeum vulgare L.), winter wheat (TRZAW, Triticum aestivum L.), and several weed species of mixtures of Compound 2 with the commercial herbicides (2,4-dichlorophenoxy)acetic acid (2,4-D) and (4-chloro-2-methylphenoxy)acetic acid (MCPA), auxin mimics. […] Plants were treated postemergence at the 2-4 leaf growth stage, except KCHSC, SASKR and STEME which were in the 4-8 leaf growth stage. Each treatment was replicated one time. […] Plants were watered as needed. […] Results are from single replicates.

wild buckwheat (POLCO) [2] = assay: Test 21 growth chamber, postemergence; type: in vivo, Polygonum convolvulus; settings: 19 DAA
Protocol: A test was conducted to evaluate the effects on winter barley (HORVW, Hordeum vulgare L.), winter wheat (TRZAW, Triticum aestivum L.), and several weed species, of mixtures of Compound 2 with the commercial herbicide (2,4-dichlorophenoxy)acetic acid (2,4-D), an auxin mimic. […] Plants were treated postemergence at the 2-4 leaf growth stage, and each treatment was replicated one time. […] Plants were watered as needed. […] Results are from single replicates.

common ragweed (AMBEL) = assay: Test 2 field trial, preemergence; type: in vivo, Ambrosia artemisiifolia; design: scale not given here
From the text: (§1) Corn seeds (hybrid ‘Pioneer 31G96’) were planted in mid spring season, 3.8 cm deep in a clay loam soil having 2% organic matter and a pH of 6.6. Plots were 6.1 m long by 3.0 m wide with rows spaced 76 cm apart. Seeds were spaced 15 cm apart within the rows. The field was managed using conventional tillage practices. […] A few of the weed species could not be evaluated at every timing. […] Results are the means of the three replicates.

[3] = tested on: common lambsquarters (CHEAL); assay: Test 2 field trial, preemergence; type: in vivo, Chenopodium album; design: scale not given here; settings: 28 DAA
From the text: as §1

[4] = tested on: Italian cocklebur (XANSI); assay: Test 12 field trial, preemergence; type: in vivo, Xanthium strumarium ssp. italicum; design: scale not given here; settings: Cpd 2 or Cpd 1 62 g a.i./ha, Diuron 2000 g a.i./ha
From the text: (§2) In early-mid spring season, corn seeds (hybrid ‘Pioneer 3041’) were planted 5 cm deep and sugarcane nodes (variety RB-72.454) were planted 10 cm deep in separate plots in a clay soil having 2.6% organic matter and a pH of 5.6. Plots were 24 m long by 1.5 m wide with rows spaced 80 cm (corn) or 140 cm (sugarcane) apart. Corn seeds were spaced 15 cm apart and sugarcane nodes were spaced 10 cm apart within the rows. At the same time, weed seeds were broadcast over the surface of separate plots without a crop, one weed species per plot. The weed plots were rotary tilled to incorporate the weed seeds to a variety of depths. The field was managed using conventional tillage practices.

wild spikenard (HPYSU) = assay: Test 12 field trial, preemergence; type: in vivo; design: scale not given here; settings: Cpd 2 or Cpd 1 62 g a.i./ha, Diuron 2000 g a.i./ha
From the text: as §2

[5] = tested on: Ipomoea grandiflora (IPOGF); assay: Test 12 field trial, preemergence; type: in vivo; design: scale not given here; settings: Cpd 2 or Cpd 1 62 g a.i./ha, Diuron 2000 g a.i./ha
From the text: as §2

red deadnettle (LAMPU) = assay: Test 9 field trial, emerged weeds before corn planting; type: in vivo, Lamium purpureum; settings: g a.i./ha: Cpd 2 100, Glyphosate 1540, Paraquat 1150
Protocol: Corn seeds (hybrid ‘Pioneer 34M91 RR’) were planted in mid spring season, about 3.8 cm deep in a silty clay loam soil having a pH of 6.7. Plots were 9.1 m long by 3.0 m. The field was managed using no-till practices. […] Compound 2 and paraquat treatments, alone and in combination, also included a surfactant. Glyphosate, alone and with Compound 2, included ammonium sulfate in the treatment mixture. […] The effects on the weeds in the treated plots and untreated control plots were recorded 7, 14, 23, 30 and 57 days after application. Most of the weed species could not be evaluated at every timing. Corn response was only evaluated 57 days after application. […] Results are the means of the three replicates.

[6] = 18 DAA, g a.i./ha: Cpd 2 25, Atrazine 250
[7] = 18 DAA, g a.i./ha: Cpd 2 50, Atrazine 500
[8] = 18 DAA, g a.i./ha: Cpd 2 75, Atrazine 750
[9] = 18 DAA, g a.i./ha: Cpd 2 100, Atrazine 1000
[10] = 18 DAA, g a.i./ha: Cpd 2 150, Atrazine 1500
[11] = 28 DAA, g a.i./ha: Cpd 2 25, Atrazine 250
[12] = 28 DAA, g a.i./ha: Cpd 2 50, Atrazine 500
[13] = 28 DAA, g a.i./ha: Cpd 2 75, Atrazine 750
[14] = 28 DAA, g a.i./ha: Cpd 2 100, Atrazine 1000
[15] = 28 DAA, g a.i./ha: Cpd 2 150, Atrazine 1500
[16] = 55 DAA, g a.i./ha: Cpd 2 25, Atrazine 250
[17] = 55 DAA, g a.i./ha: Cpd 2 50, Atrazine 500
[18] = 55 DAA, g a.i./ha: Cpd 2 75, Atrazine 750
[19] = 55 DAA, g a.i./ha: Cpd 2 100, Atrazine 1000
[20] = 55 DAA, g a.i./ha: Cpd 2 150, Atrazine 1500
[21] = g a.i./ha: Cpd 2 25, Atrazine 250
[22] = g a.i./ha: Cpd 2 50, Atrazine 500
[23] = g a.i./ha: Cpd 2 75, Atrazine 750
[24] = g a.i./ha: Cpd 2 100, Atrazine 1000
[25] = g a.i./ha: Cpd 2 150, Atrazine 1500

SMILES	AMBEL Obs (common ragweed (AMBEL); [6])	AMBEL Obs (common ragweed (AMBEL); [7])	AMBEL Obs (common ragweed (AMBEL); [8])	AMBEL Obs (common ragweed (AMBEL); [9])	AMBEL Obs (common ragweed (AMBEL); [10])	AMBEL Obs (common ragweed (AMBEL); [11])	AMBEL Obs (common ragweed (AMBEL); [12])	AMBEL Obs (common ragweed (AMBEL); [13])	AMBEL Obs (common ragweed (AMBEL); [14])	AMBEL Obs (common ragweed (AMBEL); [15])	AMBEL Obs (common ragweed (AMBEL); [16])	AMBEL Obs (common ragweed (AMBEL); [17])	AMBEL Obs (common ragweed (AMBEL); [18])	AMBEL Obs (common ragweed (AMBEL); [19])	AMBEL Obs (common ragweed (AMBEL); [20])	CHEAL Obs [3, 21]	CHEAL Obs [3, 22]	CHEAL Obs [3, 23]	CHEAL Obs [3, 24]	CHEAL Obs [3, 25]	other results
O=C(O)COc1ccc(Cl)cc1Cl [2,4-D, (2,4-dichlorophenoxy)acetic acid]																					Postemergence POLCO Obs (wild buckwheat (POLCO) [1]; 2,4-D or MCPA alone 250 g a.i./ha): 45; Postemergence POLCO Obs (wild buckwheat (POLCO) [2]; 2,4-D alone 125 g a.i./ha): 20; Postemergence POLCO Obs (wild buckwheat (POLCO) [2]; 2,4-D alone 250 g a.i./ha): 20
CCNc1nc(Cl)nc(NC(C)C)n1 [Atrazine, atrazine, reference compound]	20	43	57	40	48	18	69	83	86	98	12	22	63	72	90	100	100	100	100	100	
Nc1nc(C2CC2)nc(C(=O)O)c1Cl [Compound 1, 6-amino-5-chloro-2-cyclopropyl-4-pyrimidinecarboxylic acid]																					XANSI Obs ([4]; 15 DAA): 40; XANSI Obs ([4]; 29 DAA): 90; XANSI Obs ([4]; 48 DAA): 90; XANSI Obs ([4]; 61 DAA): 60; HPYSU Obs (wild spikenard (HPYSU); 15 DAA): 60; HPYSU Obs (wild spikenard (HPYSU); 29 DAA): 60; HPYSU Obs (wild spikenard (HPYSU); 48 DAA): 70; HPYSU Obs (wild spikenard (HPYSU); 61 DAA): 50; IPOGF Obs ([5]; 15 DAA): 60; IPOGF Obs ([5]; 29 DAA): 70; IPOGF Obs ([5]; 48 DAA): 60; IPOGF Obs ([5]; 61 DAA): 40
COC(=O)c1nc(C2CC2)nc(N)c1Cl [Compound 2, methyl 6-amino-5-chloro-2-cyclopropyl-4-pyrimidinecarboxylate]	18	27	53	70	70	10	48	70	88	97	10	33	42	77	93	90	100	100	100	100	Postemergence POLCO Obs (wild buckwheat (POLCO) [1]; Cpd 2 alone 4 g a.i./ha): 55; Postemergence POLCO Obs (wild buckwheat (POLCO) [1]; Cpd 2 alone 8 g a.i./ha): 60; Postemergence POLCO Obs (wild buckwheat (POLCO) [1]; Cpd 2 alone 16 g a.i./ha): 60; XANSI Obs ([4]; 15 DAA): 0; XANSI Obs ([4]; 29 DAA): 70; XANSI Obs ([4]; 48 DAA): 60; XANSI Obs ([4]; 61 DAA): 40; LAMPU Obs (red deadnettle (LAMPU); 7 DAA): 45%; LAMPU Obs (red deadnettle (LAMPU); 14 DAA): 23%; LAMPU Obs (red deadnettle (LAMPU); 23 DAA): 58%; LAMPU Obs (red deadnettle (LAMPU); 30 DAA): 65%; HPYSU Obs (wild spikenard (HPYSU); 15 DAA): 60; HPYSU Obs (wild spikenard (HPYSU); 29 DAA): 60; HPYSU Obs (wild spikenard (HPYSU); 48 DAA): 50; HPYSU Obs (wild spikenard (HPYSU); 61 DAA): 40; IPOGF Obs ([5]; 15 DAA): 50; IPOGF Obs ([5]; 29 DAA): 60; IPOGF Obs ([5]; 48 DAA): 40; IPOGF Obs ([5]; 61 DAA): 40; Postemergence POLCO Obs (wild buckwheat (POLCO) [2]; Cpd 2 alone 16 g a.i./ha): 70
O=C(O)CNCP(=O)(O)O [Glyphosate]																					LAMPU Obs (red deadnettle (LAMPU); 7 DAA): 55%; LAMPU Obs (red deadnettle (LAMPU); 14 DAA): 60%; LAMPU Obs (red deadnettle (LAMPU); 23 DAA): 77%; LAMPU Obs (red deadnettle (LAMPU); 30 DAA): 79%; LAMPU Obs (red deadnettle (LAMPU); 57 DAA): 95%
